Results from PMC5584945, “Evaluation of robenidine analog NCL195 as a novel broad-spectrum antibacterial agent” (PLoS ONE, 2017).
Values after ≈ are worked out from the molar mass of the structure shown. Where two headings read alike, the source gives them in different places.

Tests used:
[1] = test system: vancomycin-resistant enterococci (VRE); test: MIC, broth micro-dilution (CLSI); type: cell-based, enterococci (porcine isolates); conditions: for MIC: Enterococcus, VRE, VRE 20 (78 W); for MIC range: S3 Table isolates
[2] = test system: S. aureus; test: MIC, broth micro-dilution (CLSI); type: cell-based, Staphylococcus aureus; conditions: for MIC / MIC50 / MIC90: Staphylococcus aureus; for MIC50 / MIC90: S2 Table isolates
[3] = test system: MDBK; test: Real-time cell viability, RealTime-Glo MT; type: cell-based, bovine; conditions: 2 or 8 μg/ml, up to 20 h post-treatment
Description: (§1) In order to ensure minimal off target mammalian cell cytotoxicity, we assayed NCL812, NCL195 and NCL219 for in vitro cytotoxicity using a panel of adherent mammalian cell lines: Caco-2 (human colorectal adenocarcinoma cell line), HEL 299 (non-cancerous human lung fibroblast cell line), Hep G2 (human hepatocellular carcinoma cell line), MDBK (normal bovine kidney cell line) and MCF7 (human mammary gland adenocarcinoma cell line). Cell lines were maintained in Dulbecco’s Modified Eagle’s Medium (DMEM; […] After 24 h incubation, media was removed, washed once with medium without antibiotics and fresh medium supplemented with 10% (vol/vol) FBS was added. […] Following exposure for 24 h, WST-1 reagent was added to each well at a final concentration of 10%. […] The IC50 value for each compound against each cell line was determined via non-linear regression (three parameters) using GraphPad Prism v6 software. The robustness of assays was confirmed with selected cell lines (Hep G2 and MDBK) seeded onto a 96–well Microwell Nunclon Delta Surface plate (Thermo Scientific Nunc; Cat No: 136101) at 5 × 10^4 cells per well.

[4] = test system: panel of mammalian cell lines (Caco-2, HEL 299, Hep G2, MDBK, MCF7); test: In vitro cytotoxicity, WST-1, all cell lines tested; type: cell-based; conditions: lower bound over all the cell lines tested
Description: as §1

For `C/C(=N\NC(=N)N/N=C(\C)c1ccc(C(C)(C)C)cc1)c1ccc(C(C)(C)C)cc1` [NCL219, (E)-N'-((E)-1-(4-(tert-butyl)phenyl)ethylidene)-2-(1-(4-(tert-butyl)phenyl)ethylidene)hydrazine-1-carboximidhydrazide], the MIC ([1]; 10% FBS) was 8 µg/mL (≈ 19.7 µM), the MIC ([1]; absence of FBS) was 2 µg/mL (≈ 4.93 µM) and the MIC range ([1]; 10% FBS) was 8 to 16 µg/mL. For the same compound, the MIC range ([1]; absence of FBS) was 1 to 2 µg/mL, the “Fold increase of MIC range in the presence of 10% FBS” value ([2]; 10% FBS versus no FBS) was “remained essentially the same” and the MIC ([2]; ATCC 12600 / MSSA, ATCC12600 [Xen29] (MSSA), 10% FBS) was 4 µg/mL (≈ 9.86 µM). For the same compound, the MIC ([2]; ATCC 12600 / MSSA, ATCC12600 [Xen29] (MSSA), absence of FBS) was 32 µg/mL (≈ 78.9 µM), the MIC ([2]; ATCC 29213 / MSSA, ATCC29213 MSSA (ST5), 10% FBS, read-out: MIC) was 8 µg/mL (≈ 19.7 µM) and the MIC ([2]; ATCC 29213 / MSSA, ATCC29213 MSSA (ST5), absence of FBS, read-out: MIC) was 16 µg/mL (≈ 39.4 µM). The MIC ([2]; ATCC 49775 / MSSA, ATCC 49775 (MSSA), 10% FBS, read-out: MIC) was 4 µg/mL (≈ 9.86 µM), the MIC ([2]; ATCC 49775 / MSSA, ATCC 49775 (MSSA), absence of FBS, read-out: MIC) was 32 µg/mL (≈ 78.9 µM) and the MIC ([2]; IRISH 1 – HA-EMRSA (ST8), 10% FBS, read-out: MIC) was > 64 µg/mL. For the same compound, the MIC ([2]; IRISH 1 – HA-EMRSA (ST8), absence of FBS, read-out: MIC) was > 64 µg/mL, the MIC ([2]; IRISH 2 – HA-EMRSA (ST8), 10% FBS, read-out: MIC) was 8 µg/mL (≈ 19.7 µM) and the MIC ([2]; IRISH 2 – HA-EMRSA (ST8), absence of FBS, read-out: MIC) was 32 µg/mL (≈ 78.9 µM). For the same compound, the MIC ([2]; MRSA / USA300, USA 300 - MRSA (ST8), 10% FBS, read-out: MIC) was 4 µg/mL (≈ 9.86 µM), the MIC ([2]; MRSA / USA300, USA 300 - MRSA (ST8), absence of FBS, read-out: MIC) was > 64 µg/mL and the MIC ([2]; MRSA, AUS2-MRSA (ST239), 10% FBS, read-out: MIC) was 8 µg/mL (≈ 19.7 µM). For the same compound, the MIC ([2]; MRSA, AUS2-MRSA (ST239), absence of FBS, read-out: MIC) was > 64 µg/mL, the MIC ([2]; MRSA, AUS3-MRSA (ST239), 10% FBS, read-out: MIC) was 8 µg/mL (≈ 19.7 µM) and the MIC ([2]; MRSA, AUS3-MRSA (ST239), absence of FBS, read-out: MIC) was 64 µg/mL (≈ 158 µM). For the same compound, the MIC ([2]; MRSA, BENGAL BAY PVL+ – CA-MRSA (ST772), absence of FBS) was 16 µg/mL (≈ 39.4 µM), the MIC ([2]; MRSA, Classic–HA-MRSA (ST250), 10% FBS, read-out: MIC) was 32 µg/mL (≈ 78.9 µM) and the MIC ([2]; MRSA, Classic–HA-MRSA (ST250), absence of FBS, read-out: MIC) was 32 µg/mL (≈ 78.9 µM). The MIC ([2]; MRSA, NY JAPAN – HA MRSA (ST5), 10% FBS, read-out: MIC) was 4 µg/mL (≈ 9.86 µM), the MIC ([2]; MRSA, NY JAPAN – HA MRSA (ST5), absence of FBS, read-out: MIC) was > 64 µg/mL and the MIC ([2]; MRSA, ST398–CA-MRSA-V (ST398), 10% FBS, read-out: MIC) was > 64 µg/mL. The MIC ([2]; MRSA, ST398–CA-MRSA-V (ST398), absence of FBS, read-out: MIC) was > 64 µg/mL, the MIC ([2]; MRSA, WA2–CA-MRSA (ST78), absence of FBS, read-out: MIC) was > 64 µg/mL and the MIC ([2]; MRSA, WA3–CA-MRSA (ST5), absence of FBS, read-out: MIC) was > 64 µg/mL. The MIC ([2]; MRSA, WA84–CA-MRSA (ST45), 10% FBS, read-out: MIC) was 8 µg/mL (≈ 19.7 µM), the MIC ([2]; MRSA, WA84–CA-MRSA (ST45), absence of FBS, read-out: MIC) was > 64 µg/mL and the MIC50 ([2]; 10% FBS) was 8 µg/mL (≈ 19.7 µM). For the same compound, the MIC90 ([2]; 10% FBS) was > 64 µg/mL, the MIC50 ([2]; absence of FBS) was 64 µg/mL (≈ 158 µM) and the MIC90 ([2]; absence of FBS) was > 64 µg/mL. For the same compound, the MIC ([2]; TAIWAN PVL+ – CA-cMRSA (ST59), 10% FBS, read-out: MIC) was 32 µg/mL (≈ 78.9 µM), the MIC ([2]; TAIWAN PVL+ – CA-cMRSA (ST59), absence of FBS, read-out: MIC) was > 64 µg/mL and the MIC ([2]; UK 15 PVL+ – HA-EMRSA (ST22), 10% FBS, read-out: MIC) was 4 µg/mL (≈ 9.86 µM). For the same compound, the MIC ([2]; UK 15 PVL+ – HA-EMRSA (ST22), absence of FBS, read-out: MIC) was 32 µg/mL (≈ 78.9 µM), the MIC ([2]; UK 15 – HA-EMRSA (ST22), 10% FBS, read-out: MIC) was 8 µg/mL (≈ 19.7 µM) and the MIC ([2]; UK 15 – HA-EMRSA (ST22), absence of FBS, read-out: MIC) was 64 µg/mL (≈ 158 µM). The MIC ([2]; UK 16 – HA- EMRSA (ST36), 10% FBS, read-out: MIC) was 4 µg/mL (≈ 9.86 µM), the MIC ([2]; UK 16 – HA- EMRSA (ST36), absence of FBS, read-out: MIC) was 32 µg/mL (≈ 78.9 µM) and the MIC ([2]; UK 17 – HA-EMRSA (ST247), 10% FBS, read-out: MIC) was 16 µg/mL (≈ 39.4 µM). The MIC ([2]; UK 17 – HA-EMRSA (ST247), absence of FBS, read-out: MIC) was 64 µg/mL (≈ 158 µM), the “Effect on cell viability (real-time)” value [3] was “had a demonstrable effect on viability at 2 μg/ml” and the IC50 [4] was > 7 µg/mL.
